Test results reported in patent US20050107423A1, “Quinolone antibacterial agents” (priority 2003, published 2005).
≈ marks a conversion by molar mass, not a printed value.

How the values were obtained:
Test in all cases: Antibacterial assay, microtitration MIC (Test A)
Format in all cases: cell-based
E. faecalis MGH-2 = conditions: Enterococcus faecalis, MGH2, Gram Positive Bacteria; strain MGH-2; read-out: Minimum Inhibitory Concentrations E. faecalis MGH-2
Method in brief: (§1)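 Minimum inhibitory concentrations were determined by standard microtitration techniques against the listed Gram-negative and Gram-positive bacterial strains.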

S pyogenes C203 = conditions: Gram Positive Bacteria; strain C203; read-out: Minimum Inhibitory Concentrations S pyogenes C203
Method in brief: as §1

S. aureus UC-76 = conditions: Staphylococcus aureus, UC76, Gram Positive Bacteria; strain UC-76; read-out: Minimum Inhibitory Concentrations S. aureus UC-76
Method in brief: as §1

S. pneumo SV-1 = conditions: Gram Positive Bacteria; strain SV-1; read-out: Minimum Inhibitory Concentrations S. pneumo SV-1
Method in brief: as §1

SMILES | MIC (E. faecalis MGH-2) | MIC (S pyogenes C203) | MIC (S. aureus UC-76) | MIC (S. pneumo SV-1)
Cc1c(N2C[C@@H]3C[C@@H](O)[C@@H](O)[C@@H]3C2)c(F)cc2c(=O)c(C(=O)O)cn(C3CC3)c12 [drawing 457] | 0.125 µg/mL (≈ 0.311 µM) | 0.125 µg/mL (≈ 0.311 µM) | 0.008 µg/mL (≈ 0.0199 µM) | 0.125 µg/mL (≈ 0.311 µM)
Cc1c(N2CCC(C(F)(F)CO)C2)c(F)cc2c(=O)c(C(=O)O)cn(C3CC3)c12 (centres unmarked) [drawing 368] | 0.125 µg/mL (≈ 0.305 µM) | 0.25 µg/mL (≈ 0.609 µM) | 0.008 µg/mL (≈ 0.0195 µM) | 0.06 µg/mL (≈ 0.146 µM)
Cc1c(N2CCC(CCO)C2)c(F)cc2c(=O)c(C(=O)O)cn(C3CC3)c12 (centres unmarked) [drawing 341] | 2 µg/mL (≈ 5.34 µM) | 0.06 µg/mL (≈ 0.16 µM) | 0.125 µg/mL (≈ 0.334 µM) | 0.03 µg/mL (≈ 0.0801 µM)
COc1c(N2CCC(C(O)C(F)F)C2)c(F)cc2c(=O)c(C(=O)O)cn(C3CC3)c12 (centres unmarked) [drawing 349] | 0.125 µg/mL (≈ 0.293 µM) | 0.25 µg/mL (≈ 0.586 µM) | 0.008 µg/mL (≈ 0.0188 µM) | 0.06 µg/mL (≈ 0.141 µM)
COc1c(N2CCC(CO)(CO)C2)c(F)cc2c(=O)c(C(=O)O)cn(C3CC3)c12 [drawing 377] | 0.5 µg/mL (≈ 1.23 µM) | 0.25 µg/mL (≈ 0.615 µM) | 0.06 µg/mL (≈ 0.148 µM) | 0.25 µg/mL (≈ 0.615 µM)
Cc1c(N2CCC(C(O)C(F)F)C2)c(F)cc2c(=O)c(C(=O)O)cn(C3CC3)c12 (centres unmarked) [drawing 343] | 0.06 µg/mL (≈ 0.146 µM) | 0.125 µg/mL (≈ 0.305 µM) | 0.004 µg/mL (≈ 0.00975 µM) | 0.06 µg/mL (≈ 0.146 µM)
Cc1c(N2C[C@@H]3CC[C@@](O)(CO)[C@@H]3C2)c(F)cc2c(=O)c(C(=O)O)cn(C3CC3)c12 [drawing 461] | 0.125 µg/mL (≈ 0.3 µM) | 0.25 µg/mL (≈ 0.6 µM) | 0.008 µg/mL (≈ 0.0192 µM) | 0.06 µg/mL (≈ 0.144 µM)
O=C(O)c1cn(C2CC2)c2c(Cl)c(N3C[C@@H](CO)[C@@H](CO)C3)c(F)cc2c1=O [drawing 401] | 0.125 µg/mL (≈ 0.304 µM) | 0.125 µg/mL (≈ 0.304 µM) | 0.004 µg/mL (≈ 0.00974 µM) | 0.125 µg/mL (≈ 0.304 µM)
COc1c(N2C[C@@H]3CC[C@@](O)(CO)[C@@H]3C2)c(F)cc2c(=O)c(C(=O)O)cn(C3CC3)c12 [drawing 460] | 0.25 µg/mL (≈ 0.578 µM) | 0.5 µg/mL (≈ 1.16 µM) | 0.015 µg/mL (≈ 0.0347 µM) | 0.25 µg/mL (≈ 0.578 µM)
COc1c(N2CCC(C(CO)CO)C2)c(F)cc2c(=O)c(C(=O)O)cn(C3CC3)c12 (centres unmarked) [drawing 340] | 0.03 µg/mL (≈ 0.0714 µM) | 0.06 µg/mL (≈ 0.143 µM) | 0.004 µg/mL (≈ 0.00951 µM) | 0.03 µg/mL (≈ 0.0714 µM)
Cc1c(N2C[C@@H](CO)[C@@H](CO)C2)c(F)cc2c(=O)c(C(=O)O)cn(C3CC3)c12 [drawing 405] | 0.06 µg/mL (≈ 0.154 µM) | 0.06 µg/mL (≈ 0.154 µM) | 0.004 µg/mL (≈ 0.0102 µM) | 0.06 µg/mL (≈ 0.154 µM)
O=C(O)c1cn(C2CC2)c2c(OC(F)F)c(N3C[C@@H](CCO)[C@@H](CCO)C3)c(F)cc2c1=O [drawing 416] | 0.125 µg/mL (≈ 0.266 µM) | 0.125 µg/mL (≈ 0.266 µM) | 0.008 µg/mL (≈ 0.017 µM) | 0.125 µg/mL (≈ 0.266 µM)
Cc1c(N2CC(C(C)O)C(C)(C)C2)c(F)cc2c(=O)c(C(=O)O)cn(C3CC3)c12 (centres unmarked) [drawing 432] | 0.06 µg/mL (≈ 0.149 µM) | 0.125 µg/mL (≈ 0.311 µM) | 0.008 µg/mL (≈ 0.0199 µM) | 0.06 µg/mL (≈ 0.149 µM)
COC[C@@H]1CN(c2c(F)cc3c(=O)c(C(=O)O)cn(C4CC4)c3c2C)C[C@@H]1CO [drawing 408] | 0.06 µg/mL (≈ 0.148 µM) | 0.06 µg/mL (≈ 0.148 µM) | 0.004 µg/mL (≈ 0.00989 µM) | 0.03 µg/mL (≈ 0.0742 µM)
CCC(=O)OC[C@@H]1CN(c2c(F)cc3c(=O)c(C(=O)O)cn(C4CC4)c3c2C)C[C@@H]1COC(=O)CC [drawing 412] | 0.5 µg/mL (≈ 0.995 µM) | 0.125 µg/mL (≈ 0.249 µM) | 0.03 µg/mL (≈ 0.0597 µM) | 0.06 µg/mL (≈ 0.119 µM)
CCCOC[C@@H]1CN(c2c(F)cc3c(=O)c(C(=O)O)cn(C4CC4)c3c2C)C[C@@H]1CO [drawing 410] | 0.125 µg/mL (≈ 0.289 µM) | 0.125 µg/mL (≈ 0.289 µM) | 0.004 µg/mL (≈ 0.00925 µM) | 0.06 µg/mL (≈ 0.139 µM)
Cc1c(N2CCC(C(O)C(C)(F)F)C2)c(F)cc2c(=O)c(C(=O)O)cn(C3CC3)c12 (centres unmarked) [drawing 369] | 0.25 µg/mL (≈ 0.589 µM) | 0.25 µg/mL (≈ 0.589 µM) | 0.004 µg/mL (≈ 0.00942 µM) | 0.125 µg/mL (≈ 0.295 µM)
COc1c(N2C[C@H](CO)[C@@H](CO)C2)c(F)cc2c(=O)c(C(=O)O)cn(C3CC3)c12 [drawing 404] | 0.125 µg/mL (≈ 0.308 µM) | 0.125 µg/mL (≈ 0.308 µM) | 0.008 µg/mL (≈ 0.0197 µM) | 0.125 µg/mL (≈ 0.308 µM)
Cc1c(N2CC(CO)C(C)(C)C2)c(F)cc2c(=O)c(C(=O)O)cn(C3CC3)c12 (centres unmarked) [drawing 427] | 0.06 µg/mL (≈ 0.154 µM) | 0.06 µg/mL (≈ 0.154 µM) | 0.002 µg/mL (≈ 0.00515 µM) | 0.03 µg/mL (≈ 0.0772 µM)
Cc1c(N2CC(CO)C3(CC3)C2)c(F)cc2c(=O)c(C(=O)O)cn(C3CC3)c12 (centres unmarked) [drawing 428] | 0.06 µg/mL (≈ 0.155 µM) | 0.06 µg/mL (≈ 0.155 µM) | 0.004 µg/mL (≈ 0.0104 µM) | 0.06 µg/mL (≈ 0.155 µM)
